Experimental data reported in patent US8809389B2, “Substituted alkynyl phenoxy compounds as new synergists in pesticidal compositions” (Endura S.p.A., priority 2009, dated 2014).

Columns and labels:
[1] = tested on: pollen beetle, Meligethes aeneus; test: Discriminating dose bioassay: α-cypermethrin in mixture with synergist; format: in vivo; details: for % Mortality: 24 h
Experimental: Two pyrethroid resistant populations originating from two different areas in Poland ‘Rogalin'and lebork’ were collected in July 2008. A putative susceptible population, UK population, was also collected in July 2008 in Hertfordshire, UK. All populations were collected from oilseed rape contained adults only and were kept at room temperature before assays were performed.
Bioassays incorporating the compounds (Compound of Example 2 and Compound of Example 3) dissolved in acetone, were carried out using a diagnostic concentration of α-cypermethrin derived from the above full dose response bioassays in a mixture of 0.01 g L^−1 of the compounds. The concentration of α-cypermethrin used for the discriminating dose bioassays was 0.3 ppm α-cypermethrin for the two polish populations, Rogalin and Lebork and 0.03 ppm α-cypermethrin for UK population. Vials treated with the compounds only, dissolved in acetone and acetone only were used as controls. Ten to 15 replicates were used for each treatment depending on insect numbers within the population. Compounds concentrations chosen conferred no mortality in preliminary bioassays.
Treated vials including the pollen beetles were stored in constant environment facilities at 18±2° C. and 16L: 8D. All bioassays were scored at an endpoint of 24 h after exposure to the insecticide. Insects incapable of coordinated movement (after gentle touching with a pencil brush if necessary) were scored as dead.

[2] = target: T1, purified resistance-associated esterase (E4) (Myzus persicae, UniProt P35501); test: Esterase interference assay (indirect determination of esterase inhibition); format: biochemical; details: no esterase = 0%, uninhibited E4 = 100%
T1 construct: 5 g of aphids (stored at −20° C.) were homogenised in 0.02 M phosphate buffer pH 7.0; from tissue; host or cells: whole Myzus persicae aphids, clone 794JZ; homogenate purified over G-25 and DEAE Sepharose Fast Flow
T1 sequence (P35501 24-552): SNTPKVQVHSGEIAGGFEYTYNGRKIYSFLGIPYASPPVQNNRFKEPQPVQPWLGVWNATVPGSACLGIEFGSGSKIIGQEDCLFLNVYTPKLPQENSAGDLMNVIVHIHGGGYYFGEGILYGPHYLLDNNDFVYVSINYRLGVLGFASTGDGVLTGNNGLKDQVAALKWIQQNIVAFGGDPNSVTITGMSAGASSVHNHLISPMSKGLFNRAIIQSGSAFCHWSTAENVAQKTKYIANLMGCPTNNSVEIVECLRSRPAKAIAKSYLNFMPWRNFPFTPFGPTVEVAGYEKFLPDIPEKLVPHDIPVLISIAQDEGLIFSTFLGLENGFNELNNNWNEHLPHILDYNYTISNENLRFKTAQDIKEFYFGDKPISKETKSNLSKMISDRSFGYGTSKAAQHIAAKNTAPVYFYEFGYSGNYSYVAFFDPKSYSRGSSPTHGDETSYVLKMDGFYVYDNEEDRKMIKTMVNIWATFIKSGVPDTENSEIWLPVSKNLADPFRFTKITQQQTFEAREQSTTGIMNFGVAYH
Excerpt: Measuring the in vitro inhibition is not straight forward, as synergists may bind to a site other than the active site.
The esterase used was the well-characterised resistance associated esterase purified from M. persicae, E4, (aphid clone: 794JZ) as per Devonshire (1977) with some modifications(Devonshire A L, The properties of a carboxylesterase from the peach-potato aphid, Myzus persicae (Sulz.) and its role in conferring insecticide resistance. Biochem J 167: 675-683 (1977)). Briefly, 5 g of aphids (stored at −20° C.) were homogenised in 0.02 M phosphate buffer pH 7.0 and centrifuged at 20 000 g for 10 min. The supernatant was passed through a G-25 column using 0.02M Tris/HCl, pH 8.5 buffer. Unretarded fractions containing esterase activity were further chromatographed through DEAF Sepharose Fast Flow (Amersham Biosciences) and eluted with a linear 0-0.35 M NaCl gradient in 500 ml of Tris/HCl as above. Fractions containing carboxylesterase activity in the form of E4 were concentrated, desalted, and buffer exchanged to 0.02 M phosphate pH 7.0 for storage.
Interactions of the purified resistance-associated esterase (E4) with Compound of Example 2, Compound of Example 3, Compound of Example 4, Compound of Example 9 and Compound of Example 11 were performed using the ‘esterase interference assay’, as described by Khot et al., with some modifications. Devonshire A L, The properties of a carboxylesterase from the peach-potato aphid, Myzus persicae (Sulz.) and its role in conferring insecticide resistance. Biochem J 167: 675-683 (1977)). Briefly, stock solutions of novel synergists (3 mM in acetone) were pre-incubated with pure E4, to give a final concentration of 0.03 mM, for 16 h at 4° C. Aliquots (15 μl ) of E4, E4+Compound of Example 2, E4+Compound of Example 3, E4+Compound of Example 4, E4+Compound of Example 9 and E4+Compound of Example 11 were incubated for 1 h with 60 μl of serial dilutions of azamethiphos in 0.02M phosphate buffer, pH 7, in separate wells of a NUNC microplate. Aliquots (25 p1) of house fly head homogenate (source of AChE) were added to each well and incubated for 15 minutes at room temperature. E4 in acetone and buffer only served as the positive and the negative controls respectively. AChE activity was measured at 405 nm using a Tmax kinetic microplate reader (Molecular Devices, Menlo Park, Calif.). Readings were taken automatically for 10 min at 10 s intervals. The rate (mOD min^−1) was calculated by the integrated software, Softmax Pro 4.6. All treatments were performed in triplicate.
No added esterase is giving 0% esterase protection and uninhibited esterase (E4) is giving 100% protection.
The materials and procedure as stated in Example 13, paragraphs 13.1, 13.1.2, 13.1.2.1 and 13.1.2.2. have been used and the following results have been obtained: […]

[3] = tested on: P450 enzymes (oxidases) of pollen beetle homogenate; test: Oxidase assay: 7-ethoxycoumarin O-deethylation inhibition in pollen beetle homogenate; format: biochemical, Meligethes aeneus; details: 3 μl of 10 mM compound, enzyme plus acetone = 100
Experimental: The ability of the novel compositions comprising the synergists of Formula (I) to inhibit P450 enzymes, a major mechanism conferring resistance to xenobiotics, was measured using pollen beetle homogenate.
Approximately 50 non-sexed adult pollen beetle from each population were homogenised on ice in 1 ml 0.1 M sodium phosphate buffer, pH 7.6, containing, 1 mM EDTA, 1 mM DTT, 1 mM PTU, 1 mM PMSF and centrifuged at 10 000×g for 10 min. The resulting supernatant was used as the enzyme source.
The O-deethylation inhibition by compounds of Example 2 or 3 was measured using 7-ethoxycoumarin (7-EC) according to Ullrich and Weber (Ullrich V and Weber P, The O-dealkylation of 7-ethoxycoumarin by liver microsomes. Z Physiol Chem 353: 1171-1177 (1972)) and adapted to the microplate format as described by DeSousa (De Sousa G, Cuany A, Brun A, Amichot M, Rahmani R, Berge J B, A microfluorometric method for measuring ethoxycoumarin-O-deethylase activity on individual Drosophila melanogaster abdomens: interest for screening resistance in insect populations Analyt. Biochem 229: 86-91 (1995)). Briefly, 7-EC was dissolved in ethanol to make a 20 mM stock solution and diluted by the addition of 0.1 M, pH 7.8 sodium phosphate buffer to give a concentration of 0.5 mM. Fifty microliters of pollen beetle enzyme were added to separate wells of a microplate, followed by the addition of 3 μl 10 mM of either compounds of Example 2 or 3 or acetone only. After 10 min incubation in room temperature, 80 μl 0.5 mM 7-EC was added following by another 5 min at 30° C. The reaction initiated by the addition of 10 μl 9.6 mM NADPH in 0.1 M sodium phosphate, pH 7.8. Enzyme activity was measured in a Victor^2 1420 multilabel counter (Wallac, Milton Keynes, UK) for 60 min with readings taken every 5 min, using an excitation wavelength of 370 nm and an emission wavelength of 460 nm. All assays were performed in triplicate.
The ability of the composition comprising the compounds of Examples 2 and 3 to inhibit oxidases derived from the 3 different pollen beetle populations is presented in Table 7.

CC#CCOc1ccc2c(c1)OCO2 [Example 2, 5-(but-2-ynyloxy)-benzo[1.3]dioxole]
% Mortality ([1]; Lebork, 0.3 ppm α-cypermethrin in mixture with 0.01 g L^−1 synergist): 85.21% | Mortality ([1]; Rogalin and Lebork, 0.3 ppm α-cypermethrin in mixture with 0.01 g L^−1 synergist): around 85% | % Mortality ([1]; Rogalin, 0.3 ppm α-cypermethrin in mixture with 0.01 g L^−1 synergist): 80.56% | % Mortality ([1]; UK population, 0.03 ppm α-cypermethrin in mixture with 0.01 g L^−1 synergist): 71.68% | Mortality with the compound only ([1]; synergist only, without α-cypermethrin (data not shown)): No mortality | Esterase protection (%) after pre-incubation with compound ([2]; Table 2 (Example 13), 0.03 mM compound pre-incubated with E4 16 h at 4° C.): 10.36% | Esterase protection (%) after pre-incubation with compound ([2]; second 'TABLE 3' (Example 16), procedure as Example 13): 10.35% | Inhibition of 7-ethoxycoumarin O-deethylation (%) ([3]; Lebork homogenate): −38.98% | Inhibition of 7-ethoxycoumarin O-deethylation (%) ([3]; Rogalin homogenate): −11.25% | Inhibition of 7-ethoxycoumarin O-deethylation (%) ([3]; UK population homogenate): −9.3%
